Converted amounts (≈) assume the structure as drawn. Like-named read-outs stand apart in the source and are kept apart here.
What was measured:
[1] = test system: L. infantum promastigotes; assay: Antileishmanial activity against L. infantum promastigotes (MTT assay); settings: for IC50: Leishmania infantum, 72 h, read-out: IC50 L. infantum; for Ratio IC50 Miltef./IC50 Compd. (L. infantum): ratio between IC50 of miltefosine and that of each compound, L. infantum promastigotes
Experimental: (§5) Promastigote stage of L. infantum strain MHOM/TN/80/IPT1 (kindly provided by Dr. M. Gramiccia, ISS, Roma) and L. tropica (MHOM/SY/2012/ISS3130) were cultured in RPMI 1640 medium (EuroClone) supplemented with 10% heat-inactivated fetal calf serum (EuroClone, Milan Italy), 20 mM Hepes and 2 mM L-glutamine at 24 °C. […] Compounds were dissolved in DMSO and then diluted with medium to achieve the required concentrations. Drugs were placed in 96 wells round-bottom microplates and seven serial dilutions made. Miltefosine was used as reference anti-Leishmania drug. Parasites were diluted in complete medium to 5 × 10^6 parasites/mL and 100 μL of the suspension was seeded into the plates, incubated at 24 °C for 72 h and then 20 µL of MTT solution (5 mg/mL) was added into each well for 3 h. The plates were then centrifuged, the supernatants were discarded and the resulting pellets were dissolved in 100 µL of lysing buffer consisting of 20% (w/v) of a solution of SDS (Sigma), 40% DMF (Merck, Milan Italy) in H2O. The absorbance was measured spectrophotometrically at a test wavelength of 550 nm and a reference wavelength of 650 nm.

[2] = test system: Leishmania tropica promastigotes; assay: Antileishmanial activity against L. tropica promastigotes (MTT assay); settings: for IC50: 72 h, IC50 ± SD; for Ratio IC50 Miltef./IC50 Compd. (L. tropica): ratio between IC50 of miltefosine and that of each compound, L. tropica promastigotes
Experimental: as §5

[3] = Cytotoxicity against Vero-76 cells (crystal violet staining); type: cell-based, Cercopithecus Aethiops; settings: Cercopithecus aethiops (African green monkey)
Experimental: (§1) The cytotoxicity of lucanthone was also tested for comparison. […] The relevant selectivity index (SI)—a parameter that quantifies the preferential antileishmanial activity of a compound in relation to mammalian cell toxicity (CC50/IC50)—is tabulated in Table 2. […] The replacement of the 4-methyl substituent with an amino group in compound 14, while preserving good antileishmanial activity, led to a further substantial decrease of cytotoxicity, with a resultantly safer profile (SI = 16.2 and 16.9 for the two Leishmania species).
(§2) Vero-76 cells (ATCC CRL 1587 Cercopithecus Aethiops) were seeded at an initial density of 4 × 10^5 cells/mL in 24-well plates, in culture medium (Dulbecco’s modified eagle’s medium (D-MEM) with L-glutamine, supplemented with fetal bovine serum (FBS), 0.025 g/L kanamycin). Cell cultures were then incubated at 37 °C in a humidified, 5% CO2 atmosphere in the absence or presence of serial dilutions of test compounds. Cell viability was determined after 48–96 h at 37 °C by the Crystal violet staining method. The results are expressed as CC50, which is the concentration of compound necessary to inhibit cell growth by 50%. Each CC50 value is the mean and standard deviation of at least three separate experiments performed in duplicate.

Vero-76 cells = assay: as above; type: cell-based, Cercopithecus Aethiops; settings: for S.I. L. infantum: CC50 Vero-76 / IC50 L. infantum promastigotes; for S.I. L. tropica: CC50 Vero-76 / IC50 L. tropica promastigotes; for selectivity index (SI), range over both Leishmania species: Vero-76 cells vs L. tropica and L. infantum promastigotes
Experimental: as §1, §2

[4] = cited from earlier work
[5] = test system: intramacrophagic amastigotes of L. infantum; assay: Intracellular amastigote susceptibility assay in PMA-differentiated THP-1 macrophages; type: cell-based; settings: Leishmania infantum; intramacrophagic amastigotes in THP-1 macrophages, 72 h; mean ± SD; read-out: L. infantum Amastigotes IC50
Experimental: Finally, for a better idea of their real value as antileishmanial agents, compounds 14 and 17, displaying the most promising activity against promastigote stage and the highest SI values, together with lucanthone and the corresponding quinolizidine analog 1, were tested against the intramacrophagic amastigote stage of L. infantum.
THP-1 cells (human acute monocytic leukemia) were maintained in RPMI supplemented with 10% FBS (EuroClone), 50 µM 2-mercaptoethanol, 20 mM Hepes and 2 mM glutamine, at 37 °C in 5% CO2. For Leishmania infections, THP-1 cells were plated at 5 × 10^5 cells/mL in 16-chamber Lab-Tek culture slides (Nunc, Milan, Italy) and treated with 0.1 µM phorbol myristate acetate (PMA, Sigma) for 48 h to achieve differentiation into macrophages. Cells were washed and infected with metacyclic L. infantum promastigotes at a macrophage/promastigote ratio of 1/10 for 24 h. Cell monolayers were then washed and incubated in the presence of test compounds for 72 h. Slides were fixed with methanol and stained with Giemsa. The percentages of infected macrophages among treated and non-treated cells were determined by light microscopy.

[6] = Cytotoxicity against PMA-differentiated THP-1 cells (MTT); type: cell-based, human; settings: human
Experimental: (§3) The cytotoxic concentration (CC50) against THP-1 differentiated into macrophages (Table 3), used for testing the activity against the amastigote stage, is also reported.
(§4) THP-1 cells were plated at 5 × 10^5 cells/mL in 96 wells flat bottom microplates and treated with 0.1 µM PMA for 48 h to achieve differentiation into macrophages. Cells were then treated with serial dilutions of test compounds and cell proliferation evaluated using the MTT assay described for promastigotes.

PMA-differentiated THP-1 = assay: as above; type: cell-based, human; settings: CC50 THP-1 / IC50 L. infantum amastigotes
Experimental: as §3, §4

[7] = test system: Mycobacterium tuberculosis H37Ra; parameters: method as in PMID 3653383; settings: cited from earlier work
[8] = Leishmania tropica, read-out: IC50 L. tropica, promastigotes, MTT, 72 h
[9] = i.p., doses up to 200–350 mg/kg, once a day for five consecutive days, mice inoculated with leukemia P388 cells

Cc1ccc(NCCC2CCCN3CCCCC23)c2c(=O)c3ccccc3sc12 (stereo not shown) [Compound 2]
IC50 [1]: 10.6 ± 3.78 µM | Ratio IC50 Miltef./IC50 Compd. (L. infantum) [1]: 2.95 | IC50 [2, 8]: 6.27 ± 2.75 µM | Ratio IC50 Miltef./IC50 Compd. (L. tropica) [2]: 6.9 | CC50 [3]: 22.9 ± 2.3 µM | S.I. L. infantum (Vero-76 cells): 2.2 | S.I. L. tropica (Vero-76 cells): 3.7

Cc1ccc(NCCCC2CCCN3CCCCC23)c2c(=O)c3ccccc3sc12 (stereo not shown) [Compound 3]
IC50 [1]: 17.2 ± 1.31 µM | Ratio IC50 Miltef./IC50 Compd. (L. infantum) [1]: 1.8 | IC50 [2, 8]: 8.89 ± 3.02 µM | Ratio IC50 Miltef./IC50 Compd. (L. tropica) [2]: 4.87

Cc1ccc(NC[C@@H]2CCC[N+]3(C)CCCC[C@H]23)c2c(=O)c3ccccc3sc12.[I-] (stereo partly drawn) [Compound 4, (1S,9aR)-5-methyl-1-{[(4-methyl-9-oxo-9H-thioxanthen-1-yl)amino]methyl}-decahydroquinolizin-5-ium iodide]
IC50 [1]: 13 ± 2.8 µM | Ratio IC50 Miltef./IC50 Compd. (L. infantum) [1]: 2.4 | IC50 [2, 8]: 17.8 ± 5.61 µM | Ratio IC50 Miltef./IC50 Compd. (L. tropica) [2]: 2.4 | melting point: 147 to 150 °C

COc1ccc2sc3c(C)ccc(NCC4CCCN5CCCCC45)c3c(=O)c2c1 (stereo not shown) [Compound 5]
IC50 [1]: 8.99 ± 3.86 µM | Ratio IC50 Miltef./IC50 Compd. (L. infantum) [1]: 3.5 | mortality [4, 9]: no mortality | IC50 [2, 8]: 8.16 ± 5.23 µM | Ratio IC50 Miltef./IC50 Compd. (L. tropica) [2]: 5.3

COc1ccc2sc3c(C)ccc(NCCCC4CCCN5CCCCC45)c3c(=O)c2c1 (stereo not shown) [Compound 7]
IC50 [1]: 19.7 ± 5.79 µM | Ratio IC50 Miltef./IC50 Compd. (L. infantum) [1]: 1.6 | IC50 [2, 8]: 12 ± 5.24 µM | Ratio IC50 Miltef./IC50 Compd. (L. tropica) [2]: 3.6

O=c1c2ccccc2sc2c([N+](=O)[O-])ccc(NCC3CCCN4CCCCC34)c12 (stereo not shown) [Compound 8]
IC50 [1]: 38.7 ± 7.67 µM | Ratio IC50 Miltef./IC50 Compd. (L. infantum) [1]: 0.8 | IC50 [2, 8]: 19.2 ± 9.33 µM | Ratio IC50 Miltef./IC50 Compd. (L. tropica) [2]: 2.25

O=c1c2ccccc2sc2c([N+](=O)[O-])ccc(NCCC3CCCN4CCCCC34)c12 (stereo not shown) [Compound 9]
IC50 [1]: 9.39 ± 4.34 µM | Ratio IC50 Miltef./IC50 Compd. (L. infantum) [1]: 3.3 | mortality [4, 9]: no mortality | IC50 [2, 8]: 4.64 ± 1.12 µM | Ratio IC50 Miltef./IC50 Compd. (L. tropica) [2]: 9.3

O=c1c2ccccc2sc2c([N+](=O)[O-])ccc(NCCCC3CCCN4CCCCC34)c12 (stereo not shown) [Compound 10]
IC50 [1]: 22.3 ± 3.3 µM | Ratio IC50 Miltef./IC50 Compd. (L. infantum) [1]: 1.4 | IC50 [2, 8]: 11.1 ± 3.3 µM | Ratio IC50 Miltef./IC50 Compd. (L. tropica) [2]: 3.9

COc1ccc2sc3c([N+](=O)[O-])ccc(NCC4CCCN5CCCCC45)c3c(=O)c2c1 (stereo not shown) [Compound 11]
IC50 [1]: 13 ± 0.97 µM | Ratio IC50 Miltef./IC50 Compd. (L. infantum) [1]: 2.4 | IC50 [2, 8]: 6.35 ± 1.46 µM | Ratio IC50 Miltef./IC50 Compd. (L. tropica) [2]: 6.8

COc1ccc2sc3c([N+](=O)[O-])ccc(NCCCC4CCCN5CCCCC45)c3c(=O)c2c1 (stereo not shown) [Compound 12]
IC50 [1]: 7.89 ± 2.41 µM | Ratio IC50 Miltef./IC50 Compd. (L. infantum) [1]: 3.95 | IC50 [2, 8]: 7.39 ± 2.31 µM | Ratio IC50 Miltef./IC50 Compd. (L. tropica) [2]: 5.85

Nc1ccc(NCC2CCCN3CCCCC23)c2c(=O)c3ccccc3sc12 (stereo not shown) [Compound 13]
IC50 [1]: 5.23 ± 1.83 µM | Ratio IC50 Miltef./IC50 Compd. (L. infantum) [1]: 6.0 | IC50 [2, 8]: 2.87 ± 0.43 µM | Ratio IC50 Miltef./IC50 Compd. (L. tropica) [2]: 15.1

Nc1ccc(NCCC2CCCN3CCCCC23)c2c(=O)c3ccccc3sc12 (stereo not shown) [Compound 14, 4-amino-1-(quinolizidinylethyl)aminothioxanthen-9-one]
IC50 [1]: 3.63 ± 0.78 µM | Ratio IC50 Miltef./IC50 Compd. (L. infantum) [1]: 8.6 | mortality ([4]; mouse, in vivo, 260 mg/kg): no mortality | IC50 [2, 8]: 3.8 ± 1.82 µM | Ratio IC50 Miltef./IC50 Compd. (L. tropica) [2]: 11.4 | CC50 [3]: 61.4 ± 2.6 µM | S.I. L. infantum (Vero-76 cells): 16.9 | S.I. L. tropica (Vero-76 cells): 16.2 | selectivity index (SI), range over both Leishmania species (Vero-76 cells): 16–24 | IC50 [5]: 2.13 ± 1.35 µM | CC50 [6]: 21.7 ± 8.83 µM | SI (THP-1) (PMA-differentiated THP-1): 10.2

Nc1ccc(NCCCC2CCCN3CCCCC23)c2c(=O)c3ccccc3sc12 (stereo not shown) [Compound 15]
IC50 [1]: 4.22 ± 1.95 µM | Ratio IC50 Miltef./IC50 Compd. (L. infantum) [1]: 7.4 | IC50 [2, 8]: 3.72 ± 1.66 µM | Ratio IC50 Miltef./IC50 Compd. (L. tropica) [2]: 11.6

Cc1ccc(NCC2CCCN3CCCCC23)c2c(=O)c3ccccc3oc12 (stereo not shown) [Compound 16]
IC50 [1]: 8.23 ± 1.51 µM | Ratio IC50 Miltef./IC50 Compd. (L. infantum) [1]: 3.8 | IC50 [2, 8]: 6.56 ± 3.08 µM | Ratio IC50 Miltef./IC50 Compd. (L. tropica) [2]: 6.6

C(=C1c2ccccc2-c2ccccc21)[C@@H]1CCCN2CCCC[C@H]12 [Compound 17, 9-(quinolizidinylmethylidene)fluorene]
IC50 [1]: 4.35 ± 0.37 µM | Ratio IC50 Miltef./IC50 Compd. (L. infantum) [1]: 7.2 | IC50 [2, 8]: 3.5 µM | Ratio IC50 Miltef./IC50 Compd. (L. tropica) [2]: 12.4 | IC50 ([2]; read-out: IC50 L. tropica, promastigotes, MTT): 3.49 ± 1.02 µM | CC50 [3]: 83.4 ± 3 µM | S.I. L. infantum (Vero-76 cells): 19.2 | S.I. L. tropica (Vero-76 cells): 23.9 | selectivity index (SI), range over both Leishmania species (Vero-76 cells): 16–24 | IC50 [5]: 2.7 ± 0.68 µM | CC50 [6]: 53.9 ± 3.98 µM | SI (THP-1) (PMA-differentiated THP-1): 20.0 | MIC Mycobacterium tuberculosis H37Ra [7]: 0.49 µM (≈ 0.155 µg/mL)

C[N+]12CCCC[C@@H]1[C@H](C=C1c3ccccc3-c3ccccc31)CCC2 (stereo partly shown) [Compound 19]
IC50 [1]: 16.4 ± 0.59 µM | Ratio IC50 Miltef./IC50 Compd. (L. infantum) [1]: 1.90 | IC50 [2, 8]: 10.5 ± 2.69 µM | Ratio IC50 Miltef./IC50 Compd. (L. tropica) [2]: 4.1 | CC50 [3]: 82.7 ± 4.7 µM | S.I. L. infantum (Vero-76 cells): 5.0 | S.I. L. tropica (Vero-76 cells): 7.9 | MIC Mycobacterium tuberculosis H37Ra [7]: 83.9 µM

C[N+]12CCCC[C@@H]1[C@H](C=C1c3ccccc3CCc3ccccc31)CCC2.[I-] (stereo partly drawn) [Compound 20, (1S,9aR)-1-[(10,11-dihydro-5H-dibenzo[a,d][7]annulen-5-ylidene)methyl]-5-methyl-decahydroquinolizin-5-ium iodide]
IC50 [1]: 8.71 ± 0.68 µM | Ratio IC50 Miltef./IC50 Compd. (L. infantum) [1]: 3.58 | IC50 [2, 8]: 7.21 ± 3.52 µM | Ratio IC50 Miltef./IC50 Compd. (L. tropica) [2]: 6.0 | CC50 [3]: 89.9 ± 3.7 µM | S.I. L. infantum (Vero-76 cells): 10.3 | S.I. L. tropica (Vero-76 cells): 12.5 | melting point: 283 to 286 °C

CCCCCCCCCCCCCCCCOP(=O)([O-])OCC[N+](C)(C)C [Miltefosine, reference compound]
Ratio IC50 Miltef./IC50 Compd. (L. infantum) [1]: 1.0 | IC50 [2, 8]: 43.3 ± 11.4 µM | Ratio IC50 Miltef./IC50 Compd. (L. tropica) [2]: 1.0

NNC(=O)c1ccncc1 [isoniazide, reference compound]
MIC Mycobacterium tuberculosis H37Ra [7]: 0.14 to 0.28 µM

From PMC7694037, “Quinolizidine-Derived Lucanthone and Amitriptyline Analogues Endowed with Potent Antileishmanial Activity” (Pharmaceuticals, 2020)
